Assay results taken from ChEMBL document CHEMBL4028816, “Discovery of a potent inhibitor of MELK that inhibits expression of the anti-apoptotic protein Mcl-1 and TNBC cell growth” (Bioorg Med Chem, 2017).
Activity calls are given as the source filed them. No cut-off for these calls is given here.

Legend:
[1] = biological target: AMP-activated protein kinase, AMPK; test: Inhibition of AMPK (unknown origin) using SAMS peptide as substrate measured after 30 mins in presence of [gamma32P]ATP by liquid scintillation counting method; parameters: species or system Homo sapiens
[2] = biological target: Mitogen-activated protein kinase 1 (Homo sapiens, UniProt P28482); test: Inhibition of ERK2 (unknown origin) using Ets-1 as substrate measured after 30 mins in presence of [gamma32P]ATP by liquid scintillation counting method
Chain of Mitogen-activated protein kinase 1 (P28482 whole entry, the tested form may be a part): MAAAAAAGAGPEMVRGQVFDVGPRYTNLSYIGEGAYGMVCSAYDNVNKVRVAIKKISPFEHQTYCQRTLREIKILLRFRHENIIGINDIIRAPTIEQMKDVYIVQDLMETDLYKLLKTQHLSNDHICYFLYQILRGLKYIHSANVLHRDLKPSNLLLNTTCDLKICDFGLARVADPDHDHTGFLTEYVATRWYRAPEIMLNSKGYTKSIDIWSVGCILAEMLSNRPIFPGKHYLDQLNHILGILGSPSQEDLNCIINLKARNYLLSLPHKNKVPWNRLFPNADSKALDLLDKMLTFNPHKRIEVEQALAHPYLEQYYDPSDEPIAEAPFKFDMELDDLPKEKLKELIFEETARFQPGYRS

[3] = biological target: Maternal embryonic leucine zipper kinase (Homo sapiens, UniProt Q14680); test: Inhibition of His6-tagged MELK catalytic domain (1 to 340 residues) (unknown origin) expressed in Escherichia coli BL21 (DE3) cells using Bcl-GL as substrate measured after 30 mins in presence of [gamma32P]ATP by liquid scintillation counting method
Chain of Maternal embryonic leucine zipper kinase (Q14680 whole entry, the tested form may be a part): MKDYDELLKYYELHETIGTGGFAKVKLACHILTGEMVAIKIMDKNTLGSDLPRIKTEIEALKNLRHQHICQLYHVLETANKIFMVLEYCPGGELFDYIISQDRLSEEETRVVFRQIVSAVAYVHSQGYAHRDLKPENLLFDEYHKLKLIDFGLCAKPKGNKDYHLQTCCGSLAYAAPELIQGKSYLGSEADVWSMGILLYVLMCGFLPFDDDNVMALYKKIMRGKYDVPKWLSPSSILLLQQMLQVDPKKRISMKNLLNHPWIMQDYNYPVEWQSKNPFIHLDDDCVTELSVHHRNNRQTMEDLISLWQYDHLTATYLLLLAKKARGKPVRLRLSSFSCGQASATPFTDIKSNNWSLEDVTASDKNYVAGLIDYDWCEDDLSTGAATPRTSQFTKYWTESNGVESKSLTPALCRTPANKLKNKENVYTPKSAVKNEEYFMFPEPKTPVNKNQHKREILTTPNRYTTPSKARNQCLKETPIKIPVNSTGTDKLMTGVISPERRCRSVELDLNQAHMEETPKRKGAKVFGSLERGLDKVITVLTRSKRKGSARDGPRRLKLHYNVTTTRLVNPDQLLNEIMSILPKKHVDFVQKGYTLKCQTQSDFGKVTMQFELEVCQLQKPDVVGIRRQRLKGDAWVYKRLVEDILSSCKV

MCF-10A = test: Antiproliferative activity against human MCF10A cells at 10 uM after 72 hrs by CellTitre-Blue assay; assay type: functional, cell-based
SUM-159-PT = test: Antiproliferative activity against human SUM159 cells up to 20 uM after 72 hrs by CellTitre-Blue assay; assay type: functional, cell-based
BT-549 = test: Antiproliferative activity against human BT549 cells up to 20 uM after 72 hrs by CellTitre-Blue assay; assay type: functional, cell-based
HCC70 = test: Antiproliferative activity against human HCC70 cells up to 20 uM after 72 hrs by CellTitre-Blue assay; assay type: functional, cell-based

CN1CCN(CC(=O)N(C)c2ccc(N/C(=C3\C(=O)Nc4ccc(C(=O)O)cc43)c3ccccc3)cc2)CC1
Ki [1]: 4.9 nM
Ki [2]: 19000 nM

CN1CCN(CC(=O)N(C)c2ccc(N/C(=C3\C(=O)Nc4cc(C(=O)NCCCN)ccc43)c3ccccc3)cc2)CC1
IC50 [3]: > 5000 nM
Ki [3]: > 650 nM

CN1CCN(CC(=O)N(C)c2ccc(N/C(=C3\C(=O)Nc4ccccc43)c3ccccc3)cc2)CC1
Ki [1]: 4.2 nM

COC(=O)c1ccc2c(c1)/C(=C(/Nc1ccc(N(C)C(=O)CN3CCN(C)CC3)cc1)c1ccccc1)C(=O)N2
Activity (MCF-10A): inactive
Ki [1]: 9.2 nM
Activity (SUM-159-PT): Active
Activity (BT-549): Active
Activity (HCC70): Active
Ki [2]: 3000 nM
